As usually defined, the inhibition in vivo is how much of the control response was suppressed.

The values that follow come from patent US8293772B2, “Triazole substituted aminobenzophenone compounds” (Leo Pharma A/S, priority 2004, dated 2012).

SMILES strings stand for the structures.

One test has as its target T1, p38α MAP kinase (Homo sapiens, UniProt Q16539).
T1 construct: made in house; host or cells: COS-1 cells (transient co-transfection), immunoprecipitated with anti-FLAG M2 on Protein G Sepharose
Briefly: p38α MAP kinase assay (immunoprecipitated FLAG-p38α from COS-1 cells, GST-ATF-2 substrate). Type of test: biochemical. The procedure: COS-1 cells (derived from African green monkey kidney fibroblast-like cell containing wild-type T antigen under control of the SV40 promotor) were obtained from ATCC (ATCC no. CRL-1650) and grown in growth medium (DMEM without phenolred, 10% FCS, 2 mM L-glutamine, 100U penicillin and 100 μg streptomycin/ml) at 37° C. with 5% CO2. The cells were passaged twice a week by trypsination (0.25% trypsin, 1 mM EDTA in PBS) and were split 1:10. The medium was changed every second or third day. The cell line was regularly tested with the Mycoplasma PCR Primer Set (Stratagene) and found to be free of Mycoplasma. Tissue culture media, FCS, L-glutamine and penicillin and streptomycin are from Bribco BRL, Gaithersburg, Md., USA.
On day one COS-1 cells were seeded in 143 cm^2 petridish with a density of 2×10^4 celler/cm^2 in growth medium. At day 2 the cells were co-transfected with 5 μg (total) of experimental plasmid DNA, expressing the FLAG-p38α and FLAG-MKK6(EE). The plasmids were introduced into the COS-1 cells in serum-free medium using DOTAP™ (Boehringer-Mannheim, Mannheim, Germany). Plasmid DNA was prepared and purified using the QIAGEN EndoToxin-free Maxiprep-500 kit (Hilden, Germany). Briefly, DNA and DOTAP™ were mixed for exactly 15 min. at 37° C. in the CO2 incubator. […]

Test [1] relates to TNF-α. The test is described as follows: Inhibition of TNF-α secretion in LPS stimulated peripheral blood mononuclear cells. Conditions: LPS stimulated human PBMC, 18 hours, ELISA; read-out: The median inhibition concentration (IC50, nM) of TNF-α. Format: cell-based. On the procedure: (§1) To study the effect of compounds of the present invention in vitro, the inhibition of IL-1β and TNF-α secretion was determined using the following procedure:
(§2) Cytokine production was measured in the media from lipopolysaccharide (LPS) stimulated peripheral blood mononuclear cells. The mononuclear cells were isolated from human peripheral blood by Lymphoprep® (Nycomed, Norway) fractionation and suspended in RPMI 1640 (growth medium) with foetal calf serum (FCS, 2%), at a concentration of 5×10^5 cells/ml. The cells were incubated in 24-well tissue culture plates in 1 ml aliquots. Test compounds were dissolved in dimethylsulfoxide (DMSO, 10 mM) and were diluted with the medium. Compounds were added to the cells for 30 minutes, then LPS ([…] final concentration) was added. The plates were incubated for 18 hours, and the concentration of IL-1β and TNF-α in the medium was determined by enzyme-linked immunosorbent assays. The median inhibitory concentrations (IC50) of the compounds were calculated.

The next test deals with IL-1β. Briefly: Inhibition of IL-1β secretion in LPS stimulated peripheral blood mononuclear cells. Type of test: cell-based. Conditions: LPS stimulated human PBMC, 18 hours, ELISA; read-out: The median inhibition concentration (IC50, nM) of IL-1β. The procedure: as §1, §2
Background: In an ELISA, binding on a coated surface is turned into a signal by an enzyme label.

The subject of test [2] is TNF-α. Briefly: In vivo screening model of LPS induced TNF-α response in mice. The following applies: Mus musculus, po, 1 mg/kg p.o., 1 hour prior to LPS, plasma TNF-α 80-90 minutes after LPS, read-out: In vivo inhibition of LPS induced TNF-α production (in %). The procedure: In Vivo Screening Model of LPS Induced TNF-α Response in Mice
To study the effect of compounds of the present invention in vivo, an in vivo screening model of LPS induced TNF-α response in mice was set up as follows: Groups of 6 mice (C3H/HeN, female, about 8 weeks (20 g), Bomholtgaard) were dosed with test compounds in suspension vehicle 1 hour prior to LPS administration (LPS from E. coli 055:B5, L-4005, Sigma). At time 0, the mice were dosed ip with 1.0 mg LPS/kg. After anesthetization with Hypnorm/Dormicum, the mice were bled from the periorbital venous plexus 80-90 minutes after LPS administration. The blood samples were sampled in EDTA stabilised tubes and centrifuged at 4000 rpm for 10 minutes at 4° C. The plasma level of TNF-α was analysed by ELISA. Compound 156 of WO 98/32730 was used as reference compound. The plasma level of TNF-α was determined using a sandwich ELISA. Microtiter plates were coated with a monoclonal antibody against mouse TNF-α, washed and blocked with a casein buffer. Samples of mouse TNF-α recombinant standards were added to the wells of the microtiter plates and incubated. All standards were tested in triplicate, all plasma samples in single. After sample and standard incubation, the plates were washed and incubated with biotinylated polyclonal secondary antibody against mouse TNF-α and washed. Enzyme conjugate was added to all wells and incubated. Substrate was added and the enzyme/substrate reaction stopped after 15 minutes at room temperature with 1M H2SO4. The colour development (OD) was measured at 450 nm on an ELISA reader and the background OD at 620 nm was subtracted. […] The results of the tested compounds are indicated as a percentage inhibition compared to an LPS treated control group. Compounds were tested at 1 mg/kg (p.o.). The Mann-Whitney test was used to compare drug treated groups to the LPS treated control group (p<0.05).

Test [3] has as its system TNF-α. The test is described as above. Conditions: Mus musculus, ip, tested at 10 mg/kg i.p., plasma TNF-α 80-90 minutes after LPS, read-out: In vivo inhibition of LPS induced TNF-α production (in %).

T1 sequence (Q16539 whole entry): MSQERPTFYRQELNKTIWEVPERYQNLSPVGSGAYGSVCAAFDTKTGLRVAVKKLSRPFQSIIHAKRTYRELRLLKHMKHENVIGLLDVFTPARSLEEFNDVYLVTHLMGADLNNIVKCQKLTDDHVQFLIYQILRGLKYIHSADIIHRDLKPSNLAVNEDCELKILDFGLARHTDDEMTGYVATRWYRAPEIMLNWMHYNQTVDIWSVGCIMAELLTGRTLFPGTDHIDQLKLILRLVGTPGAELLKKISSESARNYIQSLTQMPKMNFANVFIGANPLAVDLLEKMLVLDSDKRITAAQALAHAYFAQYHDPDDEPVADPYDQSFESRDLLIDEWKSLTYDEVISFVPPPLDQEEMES

With `Cc1ccc(-c2cn(CCO)nn2)cc1C(=O)c1ccc(Nc2ccc(F)cc2F)cc1Cl` [Compound 102, [2-Chloro-4-(2,4-difluoro-phenylamino)-phenyl]-{5-[1-(2-hydroxy-ethyl)-1H-[1,2,3]triazol-4-yl]-2-methyl-phenyl}-methanone], on p38α MAP kinase, the “p38 MAP kinase inhibition” value was “potent p38 MAP kinase inhibitor”. Moreover, the figures for the IC50 with TNF-α [1] and with IL-1β were 0.5 nM and 1.3 nM, respectively. The inhibition in vivo at 1 mg/kg in the test with TNF-α [2] came to 94%.
On to `Cc1ccc(-c2cn(CCCS(N)(=O)=O)nn2)cc1C(=O)c1ccc(Nc2ccc(F)cc2F)cc1Cl` [Compound 108, 3-(4-{3-[2-Chloro-4-(2,4-difluoro-phenylamino)-benzoyl]-4-methyl-phenyl}-[1,2,3]triazol-1-yl)-propane-1-sulfonic acid amide], for which the results for the IC50 in the test with TNF-α [1] and with IL-1β were 0.7 nM and 1.3 nM, respectively. Besides, the inhibition in vivo at 1 mg/kg in the test with TNF-α [2] turned out to be 78%.
For `Cc1ccc(-c2cn(CCNS(C)(=O)=O)nn2)cc1C(=O)c1ccc(Nc2ccc(F)cc2F)cc1Cl` [Compound 109, N-[2-(4-{3-[2-Chloro-4-(2,4-difluoro-phenylamino)-benzoyl]-4-methyl-phenyl}-[1,2,3]triazol-1-yl)-ethyl]-methanesulfonamide] the same measures were 1.2 nM, 1.9 nM and 79%.
On the same counts, the results for `CCNC(=O)Cn1cc(-c2ccc(C)c(C(=O)c3ccc(Nc4ccc(F)cc4F)cc3Cl)c2)nn1` [Compound 112, 2-(4-{3-[2-Chloro-4-(2,4-difluoro-phenylamino)-benzoyl]-4-methyl-phenyl}-[1,2,3]triazol-1-yl)-N-ethyl-acetamide] are 0.3 nM, 5 nM and 49%.
Take `Cc1ccc(-c2cn(CC(=O)N3CCCC3)nn2)cc1C(=O)c1ccc(Nc2ccc(F)cc2F)cc1Cl` [Compound 114, 2-(4-{3-[2-Chloro-4-(2,4-difluoro-phenylamino)-benzoyl]-4-methyl-phenyl}-[1,2,3]triazol-1-yl)-1-pyrrolidin-1-yl-ethanone]: the IC50 with TNF-α [1] came out at 0.3 nM; in the test on IL-1β, 0.4 nM. In addition, in the test with TNF-α [2], the inhibition in vivo at 1 mg/kg amounted to 86%.
Consider `Cc1ccc(-c2cn(CC(=O)N3CCOCC3)nn2)cc1C(=O)c1ccc(Nc2ccc(F)cc2F)cc1Cl` [Compound 115, 2-(4-{3-[2-Chloro-4-(2,4-difluoro-phenylamino)-benzoyl]-4-methyl-phenyl}-[1,2,3]triazol-1-yl)-1-morpholin-4-yl-ethanone], for which the IC50 in the test on TNF-α [1] and with IL-1β was 0.5 nM throughout. For the same compound, the inhibition in vivo at 1 mg/kg with TNF-α [2] is 70%.
Regarding `Cc1ccc(-c2cn(CCO)nn2)cc1C(=O)c1ccc(Nc2ccc(F)cc2)cc1Cl` [Compound 122, [2-Chloro-4-(4-fluoro-phenylamino)-phenyl]-{5-[1-(2-hydroxy-ethyl)-1H-[1,2,3]triazol-4-yl]-2-methyl-phenyl}-methanone], the IC50 came out at 0.9 nM in the test with TNF-α [1] and 1.4 nM in the test with IL-1β. Further, in the test on TNF-α [2], the inhibition in vivo at 1 mg/kg came out at 96%.
On to `Cc1ccc(-c2cn(CC(O)CO)nn2)cc1C(=O)c1ccc(Nc2ccc(F)cc2)cc1Cl` (centres unmarked) [Compound 124, [2-Chloro-4-(4-fluoro-phenylamino)-phenyl]-{5-[1-(2,3-dihydroxy-propyl)-1H-[1,2,3]triazol-4-yl]-2-methyl-phenyl}-methanone], for which the IC50 came out at 0.5 nM in the test with TNF-α [1] and 0.8 nM with IL-1β. In addition, in the test on TNF-α [2], the inhibition in vivo at 1 mg/kg was 77%.
On the same counts, the results for `Cc1ccc(-c2cn(CC(N)=O)nn2)cc1C(=O)c1ccc(Nc2ccc(F)cc2)cc1Cl` [Compound 125, 2-(4-{3-[2-Chloro-4-(4-fluoro-phenylamino)-benzoyl]-4-methyl-phenyl}-[1,2,3]triazol-1-yl)-acetamide] are 0.5 nM, 1 nM and 96%.
Consider `Cc1ccc(-n2cc(CCO)nn2)cc1C(=O)c1ccc(Nc2ccc(F)cc2)cc1Cl` [Compound 127, [2-Chloro-4-(4-fluoro-phenylamino)-phenyl]-{5-[4-(2-hydroxy-ethyl)-[1,2,3]triazol-1-yl]-2-methyl-phenyl}-methanone], for which the figures for the IC50 with TNF-α [1] and in the test with IL-1β were 0.7 nM and 0.9 nM, respectively. The inhibition in vivo at 1 mg/kg in the test with TNF-α [2] amounted to 94%.
For `Cc1ccc(-n2cc(C(C)(C)N)nn2)cc1C(=O)c1ccc(Nc2ccc(F)cc2F)cc1Cl` [Compound 131, {5-[4-(1-Amino-1-methyl-ethyl)-[1,2,3]triazol-1-yl]-2-methyl-phenyl}-[2-chloro-4-(2,4-difluoro-phenylamino)-phenyl]-methanone] the same measures were 1.8 nM, 2.5 nM and 80%.
As for `Cc1ccccc1C(=O)c1ccc(Nc2ccccc2N)cc1Cl` [Ref. comp. a, 4-(2-aminophenylamino)-2-chloro-2′-methylbenzophenone], the inhibition in vivo at 10 mg/kg in the test on TNF-α [3] was 23%.
